Consider 10 molecules from PubChem BioAssay (NCI).

Test systems include CCRF-CEM leukemia; HCT-15 colon; U251 CNS; RPMI-8226 leukemia; TK-10 renal; SN12C renal; MDA-MB-231 breast; UO-31 renal; SK-OV-3 ovarian; A549 NSCLC.
Common to all, as to assay: NCI tumour cell line growth inhibition, 48 h

SMILES strings stand for the structures. Several values for one entry are separate records, joined by “and”; a condition that tells them apart may be missing. Identical values can stand only once.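 Each compound was tested at five concentrations against cells in 96-well plates for 48 hours. GI50 is the concentration that inhibits growth by half. At the TGI there is no net growth.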 Some results are limits rather than exact numbers.

`COc1cc2nc3sc(C(=O)Nc4ccc(C(=O)OC(C)C)cc4)c(C(=O)Nc4ccc(Cl)cc4C)n3c(=O)c2cc1OC`: the GI50 in the experiment with CCRF-CEM leukemia was 4.66 µM; with HCT-15 colon, 17.3 µM; with U251 CNS, 5.14 µM; with RPMI-8226 leukemia it was 16 µM; in the experiment on TK-10 renal it was 2.45 µM; with SN12C renal it was 22.8 µM. Further, the GI50 is 11.2 µM with MDA-MB-231 breast, 25.7 µM in the experiment with UO-31 renal, 23.3 µM in the experiment with SK-OV-3 ovarian and 0.824 µM with A549 NSCLC. For the same molecule, the TGI in the experiment with CCRF-CEM leukemia is 30.2 µM; in the experiment on HCT-15 colon, greater than 100 µM; in the experiment on U251 CNS, 18.4 µM; in the experiment on RPMI-8226 leukemia it was 78.6 µM; in the experiment on TK-10 renal, 12.7 µM; in the experiment on SN12C renal it was 71.1 µM. The TGI in the experiment with MDA-MB-231 breast was 38.4 µM; in the experiment on UO-31 renal, greater than 100 µM; in the experiment on SK-OV-3 ovarian it was 70 µM; in the experiment with A549 NSCLC it was greater than 100 µM.
As for `CC(C)=CCC[C@H](C)[C@@H]1CC[C@]2(C)C3CC[C@]4(OC4(C)C)C(CCCO)[C@]3(C)CC[C@@]12C` (stereo partly specified), the GI50 in the experiment with CCRF-CEM leukemia is 25.2 µM; in the experiment on HCT-15 colon, 26.5 µM; in the experiment on U251 CNS, 19.7 µM; in the experiment on RPMI-8226 leukemia, 33.6 µM; in the experiment on TK-10 renal it was 17.5 µM; in the experiment on MDA-MB-231 breast it was 20.5 µM. For the same molecule, the GI50 in the experiment on UO-31 renal is 33.5 µM; with A549 NSCLC it was 37.7 µM. The TGI is 65.9 µM with CCRF-CEM leukemia; greater than 100 µM in the experiment with HCT-15 colon; 66.1 µM in the experiment with U251 CNS; greater than 100 µM in the experiment with RPMI-8226 leukemia; 38.2 µM in the experiment with TK-10 renal; 43.3 µM with MDA-MB-231 breast. In addition, the TGI with UO-31 renal and in the experiment on A549 NSCLC was greater than 100 µM each time.
`CCCCCCCCCCCCCC(=O)O[C@H]1CC[C@H](NC(=O)[C@H](OC)[C@H](O)[C@@H](O)[C@H](O)/C=C/C(C)C)C(=O)NC1`: the TGI in the experiment on CCRF-CEM leukemia is 8.44 µM and 10.7 µM; in the experiment on HCT-15 colon, 21.1 µM and 90.7 µM; in the experiment with U251 CNS it was 18.6 µM and 11 µM; in the experiment on RPMI-8226 leukemia it was 11.6 µM and 10.2 µM; with SN12C renal it was 10.8 µM and 18.6 µM; with MDA-MB-231 breast it was 13.5 µM. The TGI with UO-31 renal is 22 µM; in the experiment on SK-OV-3 ovarian it was 51.2 µM and > 100 µM; in the experiment on A549 NSCLC, 7.34 µM and 13.8 µM. The results for the GI50 in the experiment on MDA-MB-231 breast and in the experiment with UO-31 renal were 0.00638 µM and 0.00883 µM, respectively.
Consider `[O-]c1c2c(nn1-c1ccccc1)c1ccccc1c[n+]2Cc1ccccc1`, for which the TGI with CCRF-CEM leukemia, in the experiment on HCT-15 colon, with U251 CNS, in the experiment with RPMI-8226 leukemia, with TK-10 renal and with SN12C renal was greater than 100 µM in each case. For the same molecule, the TGI in the experiment on UO-31 renal, in the experiment on SK-OV-3 ovarian and with A549 NSCLC was greater than 100 µM in each case.
With `COc1ccc(-c2[nH]c3ccccc3c2C=C(C#N)C#N)cc1`, the GI50 in the experiment on CCRF-CEM leukemia is 0.352 µM; in the experiment with HCT-15 colon, 0.587 µM; with U251 CNS, 0.479 µM; in the experiment on TK-10 renal it was 0.917 µM; in the experiment on SN12C renal, 1.15 µM; with MDA-MB-231 breast, 0.543 µM. Besides, the GI50 in the experiment on SK-OV-3 ovarian was 0.434 µM; in the experiment with A549 NSCLC it was 0.694 µM. Further, the TGI was 10.3 µM in the experiment on CCRF-CEM leukemia; greater than 100 µM with HCT-15 colon; greater than 100 µM with U251 CNS; greater than 71.7 µM in the experiment on TK-10 renal; greater than 100 µM with SN12C renal; greater than 22.6 µM in the experiment on MDA-MB-231 breast. Besides, the TGI in the experiment on UO-31 renal was greater than 100 µM; in the experiment with SK-OV-3 ovarian it was 5.89 µM; in the experiment on A549 NSCLC, greater than 100 µM.
Take `Cn1ccnc1C(=O)/C=C/c1ccc(C(=O)Nc2ccc(Cl)cc2)cc1`: the GI50 in the experiment with CCRF-CEM leukemia is 0.783 µM; in the experiment with HCT-15 colon, 0.676 µM; in the experiment with RPMI-8226 leukemia it was 0.431 µM; in the experiment on TK-10 renal, 0.973 µM; in the experiment on SN12C renal it was 1.01 µM; in the experiment on MDA-MB-231 breast it was 1.2 µM. Further, the GI50 in the experiment with UO-31 renal was 0.905 µM; with SK-OV-3 ovarian, 1.87 µM; in the experiment on A549 NSCLC, 0.951 µM. Also, the TGI with CCRF-CEM leukemia is 2.71 µM; with HCT-15 colon, 3.12 µM; with RPMI-8226 leukemia, 1.35 µM; in the experiment with TK-10 renal, 17.2 µM; with SN12C renal, 5.07 µM; in the experiment with MDA-MB-231 breast, 16.7 µM. In addition, the TGI in the experiment with UO-31 renal is 4.34 µM; in the experiment on SK-OV-3 ovarian, greater than 33.3 µM; in the experiment with A549 NSCLC, greater than 33.3 µM.
In the case of `O=S(=O)(O)O.[NH-]C1CCCCC1[NH-].[Pt+2]` (stereo unspecified), the GI50 is 17.6 µM in the experiment on CCRF-CEM leukemia; 61.5 µM in the experiment with HCT-15 colon; greater than 100 µM with U251 CNS; 48.6 µM with RPMI-8226 leukemia; greater than 100 µM with TK-10 renal; greater than 100 µM in the experiment on SN12C renal. Also, the GI50 with UO-31 renal is greater than 100 µM; in the experiment on SK-OV-3 ovarian, greater than 100 µM; with A549 NSCLC, 80.4 µM. The TGI with CCRF-CEM leukemia, in the experiment on HCT-15 colon, in the experiment with U251 CNS, with RPMI-8226 leukemia, in the experiment on TK-10 renal and in the experiment with SN12C renal was greater than 100 µM throughout. In addition, the TGI with UO-31 renal, in the experiment with SK-OV-3 ovarian and in the experiment with A549 NSCLC was greater than 100 µM each time.
For the molecule `CCOC(=O)C12CCCC1(O)N(NC(=O)c1ccccc1)C(C)=C2C(=O)OC` (stereo unspecified), the TGI with CCRF-CEM leukemia, in the experiment on HCT-15 colon, in the experiment with U251 CNS, in the experiment on RPMI-8226 leukemia, in the experiment on TK-10 renal and in the experiment with SN12C renal was greater than 100 µM each time. Also, the TGI in the experiment with UO-31 renal, in the experiment on SK-OV-3 ovarian and in the experiment on A549 NSCLC was greater than 100 µM each time.
With `COC(=O)C1=C2CCC(=O)[C@@]2(C)C(OC(C)=O)C=CC1` (stereo partly specified), the TGI in the experiment with CCRF-CEM leukemia was greater than 100 µM; in the experiment on HCT-15 colon it was 87.3 µM; with U251 CNS it was greater than 100 µM; with RPMI-8226 leukemia, greater than 100 µM; in the experiment with TK-10 renal, greater than 100 µM; in the experiment with SN12C renal it was greater than 100 µM. In addition, the TGI in the experiment with UO-31 renal, in the experiment on SK-OV-3 ovarian and in the experiment on A549 NSCLC was greater than 100 µM in each case.
With `Cc1[nH]c2ccccc2c1C1Cc2ccccc2N1C(=O)/C=C/C=C/c1ccccc1` (stereo unspecified), the TGI in the experiment on CCRF-CEM leukemia, in the experiment with HCT-15 colon, in the experiment with U251 CNS, with RPMI-8226 leukemia, with TK-10 renal and in the experiment on SN12C renal was greater than 100 µM in each case. Besides, the TGI in the experiment with UO-31 renal, in the experiment on SK-OV-3 ovarian and in the experiment on A549 NSCLC was greater than 100 µM in each case.
